This is an account of results in US20020028809A1 (SUNTORY LIMITED, priority 1999, published 2002).

Where two headings read alike, the source gives them in different places.

Test [1] concerns the target T1, α1β1γδ subtype of nicotinic acetylcholine receptors (Rattus norvegicus, UniProt P18916+P25108+P25109+P25110).
T1 construct: Native receptor, no construct: "Triton X100 (2% w/v) was added
In words: Binding assays at α1β1γδ subtype of nicotinic acetylcholine receptors ([3H]-α-bungarotoxin, rat muscle extract). Particulars: for remaining activity at 100 µM / remaining activity at 1000 µM: read-out: control % of [3H]-α-Bgt binding. From the text: (§1) Methods for evaluating binding capabilities of the compounds at nicotinic acetylcholine receptors are different by subtypes of receptors. Binding capabilities of the compounds at α4β2 nicotinic acetylcholine receptors are examined using rat brain membrane obtained from whole homogenized brain, and determining the inhibiting rate of the compounds against [^3H]-cytisine binding to said brain membrane. Furthermore, the binding capabilities of the compounds at α1β1γδ nicotinic acetylcholine receptors are examined using homogenized rat muscle, and determining the inhibiting rate of the compounds against [^3H]-α-bungarotoxin binding to said muscle homogenate.
Binding Assays at α1β1γδ Subtype of Nicotinic Acetylcholine Receptors
Affinity of the compounds of the present invention to α1βγδ subtype of nicotinic acetylcholine receptors was measured by the following method, which was modified method described by Garcha H. S., Thomas P., Spivak C.
(1) Preparation of Rat Skeletal Muscles Containing α1β1γδ Subtype of Nicotinic Acetylcholine Receptors
The substantially same animals described in the Biological Experiment 1 were used.
Isolation of α1β1γδ subtype of nicotinic acetylcholine receptors was performed as follow. That is, rat posterior skeletal muscles were isolated just after sacrificed by decapitation, washed with ice-cooled saline solution and then frozen at −80° C. with liquid nitrogen and stored till using. After thawing the frozen muscles, tissue was homogenized (40% w/v) with buffer solution [2.5 mM of sodium phosphate buffer (pH:7.2), 90 mM of NaCl, 2 mM of KCl, 1 mM of EDTA, 2 mM of benzamidine, 0.1 mM of benzethonium chloride, […], 0.01% of sodium azide] in Waring blender (Waring blender 34BL97; WARING PRODUCTS DIVISION DYNAMICS CORPORATION OF AMERICA) for 60 seconds. The homogenate were centrifuged under 20,000×G for 60 minutes at 4° C. The supernatant was separated and the resulting pellet was added to the same buffer (1.5 ml/g wet weight), and homogenized under the same conditions. Triton X100 (2% w/v) was added and the mixture was stirred for 3 hours at 4° C. The centrifugation at 100,000×G for 60 minutes at 4° C. yielded the rat muscle extract as supernatant. This was stored at 4° C. for up to 4 weeks, and used for binding assays at receptors.
(2) Experiments of α1β1γδSubtype of Nicotinic Acetylcholine Receptors Binding
Receptors binding experiments were performed as follow. That is, the extract of rat muscle containing 600-900 μg of protein was added to test tubes containing test compounds and incubated for 15 minutes at 37° C. Then, to this mixture was added 1 nM of [^3H]-α-bungarotoxin (α-Bgt) and further incubated for 2 hours. The samples were isolated by vacuum filtration onto Whatman GF/B filters, which were prerinsed with 0.5% polyethylenimine just prior to sample filtration, using Brandel multi manifold cell harvester. The filters were rapidly rinsed with washing solution (10 mM of KH2PO4, 150 mM of NaCl, pH 7.2, room temperature) (5×1 ml). The filters were counted in 3 ml of clearsol I (Nacalai Tesque Inc.). Determination of nonspecific binding was incubated in the presence of 1 μM α-Bgt.
In the receptor binding experiments, said buffer solution was added for adjusting the final concentration of BSA to be 0.05%.
Analyses of the experimental results were conducted by the same way as described in the Biological Experiment 1.

In test [2] the target is T2, α4β2 subtype of nicotinic acetylcholine receptors (Rattus norvegicus, UniProt P09483+P12390).
T2 construct: examined using rat brain membrane obtained from whole homogenized brain; from tissue; host or cells: whole brain of Fischer-344 male rats, membrane pellet
In words: Binding assays at α4β2 subtype of nicotinic acetylcholine receptors ([3H]-cytisine, rat brain membrane).
From the text: as §1
Binding assays at α4β2 Subtype of Nicotinic Acetylcholine Receptors
(1) Preparation of Rat Brain Membrane Containing α4β2 Subtype of Nicotinic Acetylcholine Receptors
Rats were housed in the breeding cage controlled of the room temperature at 23±1° C., and the humidity of 55±5% for 1 to 4 weeks. Rats (3 to 4 rats per a cage) were housed with lights on for 12 hours daily (from 7:00 to 19:00), and allowed free access to food and water.
Preparation of rat brain membrane containing α4β2 subtype of nicotinic acetylcholine receptors was performed as follow. That is, rat brains were isolated just after sacrificed by decapitation, washed with ice-cooled saline solution and then frozen at −80° C. with liquid nitrogen and stored till using. After thawing the frozen brain, the brain was homogenized in 10 volumes of ice-cooled buffer solution (50 mM of Tris-HCl, 120 mM of NaCl, 5 mM of KCl, 1 mM of MgCl2, 2mM of CaCl2; pH 7.4; 4° C.) using homogenizer (HG30, Hitachi Kohki Ltd.) for 30 seconds, and the homogenate were centrifuged under 1,000×G for 10 minutes at 4° C. The resulting supernatant was separated and the pellet was homogenized again with half volume of aforementioned prior buffer solution and centrifuged under the same conditions. Combined supernatant was further centrifuged under 40,000×G for 20 minutes at 4° C. The pellet was suspended in buffer solution and used for binding assays at receptors.
(2) Experiments of α4β2 Subtype of Nicotinic Acetylcholine Receptors Binding
Suspensions of membrane pellets containing 400-600 μg of protein were added to test tubes containing test compounds and [^3H]-cytisine (2 nM) in a final volume of 200 μl and incubated for 75 minutes in ice-cooled bath. The samples were isolated by vacuum filtration onto Whatman GF/B filters, which were prerinsed with 0.5% polyethylenimine just prior to sample filtration, using Brandel multi manifold cell harvester. The filters were rapidly washed with buffer solution (3×1 ml). The filters were counted in 3 ml of clearsol I (Nacalai Tesque Inc.).
Analyses of the experimental results were conducted using the Accufit Competition Program (Beckman Ltd.).

Setting [3] is: rat brain membrane, [3H]-cytisine (2 nM), read-out: Affinities for receptors Ki α4β2.

T1 sequence (P25108 21-457): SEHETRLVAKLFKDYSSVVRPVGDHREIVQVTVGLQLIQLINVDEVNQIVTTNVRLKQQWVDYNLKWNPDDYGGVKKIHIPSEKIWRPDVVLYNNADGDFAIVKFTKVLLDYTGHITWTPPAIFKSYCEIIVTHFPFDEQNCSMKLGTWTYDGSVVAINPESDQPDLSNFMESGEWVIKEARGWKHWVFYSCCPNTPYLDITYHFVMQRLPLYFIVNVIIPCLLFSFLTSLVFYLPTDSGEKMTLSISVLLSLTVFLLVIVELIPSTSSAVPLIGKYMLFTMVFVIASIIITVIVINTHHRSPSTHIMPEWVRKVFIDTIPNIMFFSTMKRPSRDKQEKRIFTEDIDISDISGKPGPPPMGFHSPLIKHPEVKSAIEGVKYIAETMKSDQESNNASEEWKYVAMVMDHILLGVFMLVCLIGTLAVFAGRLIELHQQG
T1 sequence (P25110 22-517): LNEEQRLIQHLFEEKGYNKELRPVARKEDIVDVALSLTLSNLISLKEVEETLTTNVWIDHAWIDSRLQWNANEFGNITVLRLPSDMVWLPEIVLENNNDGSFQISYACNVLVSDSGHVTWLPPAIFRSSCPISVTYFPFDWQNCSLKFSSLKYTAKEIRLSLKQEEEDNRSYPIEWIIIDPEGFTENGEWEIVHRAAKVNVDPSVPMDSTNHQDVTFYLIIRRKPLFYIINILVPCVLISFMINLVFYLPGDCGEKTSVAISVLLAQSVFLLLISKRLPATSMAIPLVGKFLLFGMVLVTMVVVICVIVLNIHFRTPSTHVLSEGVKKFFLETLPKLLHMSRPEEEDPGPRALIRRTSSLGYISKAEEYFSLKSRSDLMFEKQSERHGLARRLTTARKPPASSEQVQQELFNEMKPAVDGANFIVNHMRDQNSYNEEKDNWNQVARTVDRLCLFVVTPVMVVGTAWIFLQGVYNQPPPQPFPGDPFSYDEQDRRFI
T1 sequence (P25109 24-501): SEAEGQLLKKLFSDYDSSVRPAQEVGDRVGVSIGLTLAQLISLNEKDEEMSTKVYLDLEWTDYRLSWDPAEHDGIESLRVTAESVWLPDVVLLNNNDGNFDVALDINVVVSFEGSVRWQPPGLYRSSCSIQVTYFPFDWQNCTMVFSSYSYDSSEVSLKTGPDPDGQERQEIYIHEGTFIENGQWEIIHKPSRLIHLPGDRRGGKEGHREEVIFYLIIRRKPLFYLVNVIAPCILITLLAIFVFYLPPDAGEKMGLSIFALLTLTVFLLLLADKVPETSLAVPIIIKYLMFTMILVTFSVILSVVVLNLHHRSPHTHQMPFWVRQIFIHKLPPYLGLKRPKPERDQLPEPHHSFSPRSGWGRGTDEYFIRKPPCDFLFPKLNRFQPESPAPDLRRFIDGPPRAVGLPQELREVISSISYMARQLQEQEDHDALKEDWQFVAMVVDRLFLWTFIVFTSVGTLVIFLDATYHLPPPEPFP
T2 sequence (P09483 31-630): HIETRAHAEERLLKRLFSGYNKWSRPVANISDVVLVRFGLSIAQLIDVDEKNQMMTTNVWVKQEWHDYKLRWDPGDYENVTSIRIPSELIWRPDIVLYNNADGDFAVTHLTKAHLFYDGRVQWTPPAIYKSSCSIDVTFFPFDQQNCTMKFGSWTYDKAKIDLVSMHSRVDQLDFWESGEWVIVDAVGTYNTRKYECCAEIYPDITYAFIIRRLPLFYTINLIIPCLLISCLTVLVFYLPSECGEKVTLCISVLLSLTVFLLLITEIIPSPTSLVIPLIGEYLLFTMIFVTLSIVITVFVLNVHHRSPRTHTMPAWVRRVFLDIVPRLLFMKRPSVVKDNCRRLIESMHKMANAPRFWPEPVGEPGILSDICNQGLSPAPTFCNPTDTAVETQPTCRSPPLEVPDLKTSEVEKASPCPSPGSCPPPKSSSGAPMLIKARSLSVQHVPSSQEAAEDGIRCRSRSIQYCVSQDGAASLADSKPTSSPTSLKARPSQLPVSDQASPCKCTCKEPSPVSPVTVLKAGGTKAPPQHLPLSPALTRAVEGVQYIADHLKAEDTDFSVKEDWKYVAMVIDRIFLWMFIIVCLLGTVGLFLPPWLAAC
T2 sequence (P12390 25-500): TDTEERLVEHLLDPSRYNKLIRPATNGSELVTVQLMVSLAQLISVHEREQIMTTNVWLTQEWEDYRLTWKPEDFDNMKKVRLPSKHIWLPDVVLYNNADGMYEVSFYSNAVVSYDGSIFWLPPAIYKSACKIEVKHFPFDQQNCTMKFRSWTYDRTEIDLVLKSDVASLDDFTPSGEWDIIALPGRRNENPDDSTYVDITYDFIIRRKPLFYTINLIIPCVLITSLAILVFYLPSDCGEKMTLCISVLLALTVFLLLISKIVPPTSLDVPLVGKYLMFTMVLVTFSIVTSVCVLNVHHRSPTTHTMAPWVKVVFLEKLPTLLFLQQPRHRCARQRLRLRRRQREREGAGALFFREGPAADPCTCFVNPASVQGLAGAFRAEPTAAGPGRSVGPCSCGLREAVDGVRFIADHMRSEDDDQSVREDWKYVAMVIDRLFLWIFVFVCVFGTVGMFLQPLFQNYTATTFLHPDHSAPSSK

Consider `CN1CCCC1c1cccnc1` (single isomer, unassigned; (-)) [Nicotine, (−)-nicotine, reference compound], for which the inhibitory constant (Ki) (commonly a measure of affinity in units of concentration, obtained from inhibition or displacement) in test [1] stood at 182000 nM.

In the case of `Cc1csc(=N)n1Cc1ccc(Cl)nc1` [Compound 2, 3-(6-chloro-3-pyridyl)methyl-2-imino-4-methyl-2,3-dihydrothiazole], the inhibitory constant (Ki) came to 12800 nM in test [1] and 3.5 nM in test [2].

Take `Cc1cn(Cc2ccc(Cl)nc2)c(=N)s1` [Compound 3, 3-(6-chloro-3-pyridyl)methyl-2-imino-5-methyl-2,3-dihydrothiazole]: in test [1], the remaining activity at 100 µM was found to be 69% and the remaining activity at 1000 µM is 28%. Also, the affinity in test [2] corresponds to a Ki of 5.8 nM.

On to `N=C1SCCN1Cc1cccnc1` [Compound 4, 2-imino-3-(3-pyridyl)methylthiazolidine], for which, in test [1], the remaining activity at 100 µM turned out to be 6% and the remaining activity at 1000 µM was found to be 1%. This compound also displayed an inhibition constant (Ki) in test [2] of 7.5 nM.

For the compound `N=c1ncccn1Cc1ccc(Cl)nc1` [Compound 10, 1-(6-chloro-3-pyridyl)methyl-2-imino-1,2-dihydropyrimidine], the figures for the Ki in test [1] and in test [2] were 347000 nM and 8.7 nM, respectively.

For the compound `N=C1CCCCN1Cc1ccc(Cl)nc1` [Compound 15, 1-(6-chloro-3-pyridyl)methyl-2-iminopiperidine], in test [1], the remaining activity at 100 µM was 21% and the remaining activity at 1000 µM is 4%. Besides, in test [2] (setting [3]), the Ki was 4.8 nM.

`N=C1SCCCN1Cc1ccc(Cl)nc1` [Compound 17, 3-(6-chloro-3-pyridyl)methyl-2-imino-3,4,5,6-tetrahydro-2H-1,3-thiazine]: in test [1], the remaining activity at 100 µM worked out at 68% and the remaining activity at 1000 µM came to 23%. Moreover, the Ki in test [2] (setting [3]) came out at 520 nM.

Take `Cc1csc(=N)n1Cc1ccc(F)nc1` [Compound 18, 3-(6-fluoro-3-pyridyl)methyl-2-imino-4-methyl-2,3-dihydrothiazole]: the Ki in test [1] is 5800 nM; in test [2], 10.8 nM.

Turning to `Cc1sc(=N)n(Cc2ccc(Cl)nc2)c1C` [Compound 20, 3-(6-chloro-3-pyridyl)methyl-2-imino-4,5-dimethyl-2,3-dihydrothiazole], in test [1], the remaining activity at 100 µM amounted to 96% and the remaining activity at 1000 µM was determined as 45%. The affinity in test [2] corresponds to a Ki of 7.56 nM.

`CCc1csc(=N)n1Cc1ccc(Cl)nc1` [Compound 21, 3-(6-chloro-3-pyridyl)methyl-4-ethyl-2-imino-2,3-dihydrothiazole]: in test [1], the remaining activity at 100 µM is 57% and the remaining activity at 1000 µM is 19%. Moreover, in test [2], the Ki was 21.7 nM.

With `N=c1ccc(Cl)cn1Cc1ccc(Cl)nc1` [Compound 22, 5-chloro-1-(6-chloro-3-pyridyl)methyl-2-imino-1,2-dihydropyridine], in test [1], the remaining activity at 100 µM was found to be 75% and the remaining activity at 1000 µM came to 28%. The same compound had an inhibition constant Ki in test [2] of 33.7 nM.

As for `Cc1cccn(Cc2ccc(Cl)nc2)c1=N` [Compound 23, 1-(6-chloro-3-pyridyl)methyl-2-imino-3-methyl-1,2-dihydropyridine], in test [1], the remaining activity at 100 µM came to 89% and the remaining activity at 1000 µM was 52%. In test [2], this compound returned a Ki of 221 nM.

Turning to `Cc1ccc(=N)n(Cc2ccc(Cl)nc2)c1` [Compound 24, 1-(6-chloro-3-pyridyl)methyl-2-imino-5-methyl-1,2-dihydropyridine], in test [1], the remaining activity at 100 µM is 80% and the remaining activity at 1000 µM is 36%. The Ki in test [2] turned out to be 48.6 nM.

On to `Cc1ccn(Cc2ccc(Cl)nc2)c(=N)c1` [Compound 25, 1-(6-chloro-3-pyridyl)methyl-2-imino-4-methyl-1,2-dihydropyridine], for which, in test [1], the remaining activity at 100 µM turned out to be 90% and the remaining activity at 1000 µM was 58%. In test [2], this compound had an inhibitory constant (Ki) of 171 nM.

Take `N=c1ccccn1Cc1cccnc1` [Compound 26, 2-imino-1-(3-pyridyl)methyl-1,2-dihydropyridine]: the results for the Ki in test [1] and in test [2] were 41600 nM and 28.2 nM, respectively.

In the case of `CC1CSC(=N)N1Cc1ccc(Cl)nc1` (stereo not drawn) [Compound 27, 3-(6-chloro-3-pyridyl)methyl-2-imino-4-methylthiazolidine], the Ki in test [1] was 16300 nM; in test [2], 53.1 nM.

Regarding `Cc1csc(=N)n1Cc1cncc(Br)c1` [Compound 30, 3-(5-bromo-3-pyridyl)methyl-2-imino-4-methyl-2,3-dihydrothiazole], the inhibition constant Ki in test [1] was determined as 22500 nM; in test [2], 26.7 nM.

As for `Cc1ccc(CN2CCSC2=N)cn1` [Compound 32, 2-imino-3-(6-methyl-3-pyridyl)methylthiazolidine], the Ki in test [1] worked out at 14600 nM; in test [2], 10 nM.

For the compound `Cc1cc(CN2CCSC2=N)on1` [Compound 35, 2-imino-3-(3-methyl-5-isoxazolyl)methylthiazolidine], in test [1], the remaining activity at 100 µM was found to be 12% and the remaining activity at 1000 µM was -3%. The affinity in test [2] corresponds to a Ki of 41 nM.

Take `Cc1cc(Cn2c(C)csc2=N)on1` [Compound 36, 2-imino-4-methyl-3-(3-methyl-5-isoxazolyl)methyl-2,3-dihydrothiazole]: in test [1], the remaining activity at 100 µM turned out to be 10% and the remaining activity at 1000 µM was found to be 2%. This compound also showed a Ki in test [2] of 263 nM.

For the compound `Cc1csc(=N)n1Cc1cnc(Cl)s1` [Compound 37, 3-(2-chloro-5-thiazolyl)methyl-2-imino-4-methyl-2,3-dihydrothiazole], the values for the inhibition constant (Ki) in test [1] and in test [2] were 22900 nM and 16.4 nM, respectively.

Turning to `Cc1csc(=N)n1Cc1cnc(Cl)c(Cl)c1` [Compound 38, 3-(5,6-dichloro-3-pyridyl)methyl-2-imino-4-methyl-2,3-dihydrothiazole], the Ki in test [1] is 65200 nM; in test [2], 10.6 nM.

On to `Cc1ccc(Cn2c(C)csc2=N)cn1` [Compound 39, 2-imino-4-methyl-3-(6-methyl-3-pyridyl)methyl-2,3-dihydrothiazole], for which the Ki in test [1] amounted to 10800 nM; in test [2] it was 30.5 nM.

As for `N=c1sc(-c2ccccc2)cn1Cc1ccc(Cl)nc1` [Compound 40, 3-(6-chloro-3-pyridyl)methyl-2-imino-5-phenyl-2,3-dihydrothiazole], in test [1], the remaining activity at 100 µM was 71% and the remaining activity at 1000 µM worked out at 35%. In test [2], this compound gave a Ki of 355 nM.
